Results published in ChEMBL document CHEMBL1134339, “New 1-aryl-3-(4-arylpiperazin-1-yl)propane derivatives, with dual action at 5-HT1A serotonin receptors and serotonin transporter, as a new class of antidepressants” (J Med Chem, 2001).

How the values were obtained:
Mus musculus [1] = test: Effect on immobility time in the forced swimming test (FST) in mice at 10 mg/kg dose; type: functional
[2] = target: T1, Adrenergic receptor alpha-1 (Rattus norvegicus, UniProt P15823+P23944+P43140); test: Affinity towards alpha-1 adrenergic receptor from rat cortex using [3H]prazosin radioligand (For prazosin Ki(nM)= […]+/-[…])
T1 sequence (P15823 whole entry): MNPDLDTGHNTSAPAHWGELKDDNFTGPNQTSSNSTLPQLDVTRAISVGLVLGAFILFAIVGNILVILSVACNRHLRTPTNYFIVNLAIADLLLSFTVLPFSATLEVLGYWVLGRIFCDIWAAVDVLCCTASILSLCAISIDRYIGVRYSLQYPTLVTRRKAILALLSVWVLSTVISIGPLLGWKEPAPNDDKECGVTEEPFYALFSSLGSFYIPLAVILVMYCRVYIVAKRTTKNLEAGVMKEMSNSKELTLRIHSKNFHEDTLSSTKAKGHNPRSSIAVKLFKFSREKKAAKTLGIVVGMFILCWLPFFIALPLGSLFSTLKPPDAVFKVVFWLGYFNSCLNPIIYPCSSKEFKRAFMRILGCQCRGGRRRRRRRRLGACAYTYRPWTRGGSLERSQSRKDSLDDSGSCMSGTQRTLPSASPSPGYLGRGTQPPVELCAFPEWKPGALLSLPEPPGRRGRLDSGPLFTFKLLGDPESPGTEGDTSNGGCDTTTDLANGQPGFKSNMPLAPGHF
T1 sequence (P23944 whole entry): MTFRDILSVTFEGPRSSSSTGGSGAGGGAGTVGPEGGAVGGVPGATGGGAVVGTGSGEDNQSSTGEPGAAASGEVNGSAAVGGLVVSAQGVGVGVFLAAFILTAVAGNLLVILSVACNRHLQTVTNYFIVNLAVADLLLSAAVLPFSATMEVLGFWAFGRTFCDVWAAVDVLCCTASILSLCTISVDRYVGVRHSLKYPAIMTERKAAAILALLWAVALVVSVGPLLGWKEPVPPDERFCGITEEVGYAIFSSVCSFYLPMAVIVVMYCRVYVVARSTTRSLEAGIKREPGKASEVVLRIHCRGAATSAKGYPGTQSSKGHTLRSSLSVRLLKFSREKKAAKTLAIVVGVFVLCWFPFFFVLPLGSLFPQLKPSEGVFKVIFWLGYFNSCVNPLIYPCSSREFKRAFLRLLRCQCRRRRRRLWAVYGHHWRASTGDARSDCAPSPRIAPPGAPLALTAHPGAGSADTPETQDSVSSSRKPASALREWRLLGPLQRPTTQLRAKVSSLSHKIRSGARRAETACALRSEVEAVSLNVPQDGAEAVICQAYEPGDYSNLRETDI
T1 sequence (P43140 whole entry): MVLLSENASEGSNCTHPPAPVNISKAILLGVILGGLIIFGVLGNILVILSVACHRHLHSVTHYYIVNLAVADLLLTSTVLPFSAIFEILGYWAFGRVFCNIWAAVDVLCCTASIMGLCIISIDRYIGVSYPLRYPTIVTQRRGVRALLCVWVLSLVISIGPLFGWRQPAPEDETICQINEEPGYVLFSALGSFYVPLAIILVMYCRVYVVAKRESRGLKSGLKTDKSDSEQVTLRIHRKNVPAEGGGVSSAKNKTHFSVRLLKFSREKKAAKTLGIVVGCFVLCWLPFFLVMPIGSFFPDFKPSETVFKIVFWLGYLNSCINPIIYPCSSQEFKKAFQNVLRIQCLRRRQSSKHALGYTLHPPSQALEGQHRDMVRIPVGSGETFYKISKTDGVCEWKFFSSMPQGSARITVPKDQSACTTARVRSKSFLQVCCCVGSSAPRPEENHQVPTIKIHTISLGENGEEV

Mus musculus [3] = test: Antidepressant-like activity in the forced swimming test (FST) in mice at 10 mg/kg dose; Antidepressant like activity; type: functional
Mus musculus [4] = test: Time-dependent effect on 8-OH-DPAT-induced hypothermia (change in body temperature) after 60 min, in mice at 0.1 mg/kg dose; type: functional
Mus musculus [5] = test: Time-dependent effect on 8-OH-DPAT-induced hypothermia (change in body temperature) after 30 min, in mice at 5 mg/kg dose; type: functional
Mus musculus [6] = test: Time-dependent effect on 8-OH-DPAT-induced hypothermia (change in body temperature) after 15 min, in mice at 0.1 mg/kg dose; type: functional
Mus musculus [7] = test: Antidepressant-like activity in the forced swimming test (FST) in mice at 0.1 mg/kg dose; Antidepressant like activity; type: functional
Mus musculus [8] = test: Time-dependent effect on 8-OH-DPAT-induced hypothermia (change in body temperature) after 60 min, in mice at 5 mg/kg dose; type: functional
[9] = target: 5-hydroxytryptamine receptor 2A (Rattus norvegicus, UniProt P14842); test: Affinity at 5-hydroxytryptamine 2 receptor from rat frontal cortex using [3H]ketanserin as radioligand (For ketanserin = Ki(nM)=0.7+/-0.09); type: tissue-based
Sequence of 5-hydroxytryptamine receptor 2A (P14842 whole entry): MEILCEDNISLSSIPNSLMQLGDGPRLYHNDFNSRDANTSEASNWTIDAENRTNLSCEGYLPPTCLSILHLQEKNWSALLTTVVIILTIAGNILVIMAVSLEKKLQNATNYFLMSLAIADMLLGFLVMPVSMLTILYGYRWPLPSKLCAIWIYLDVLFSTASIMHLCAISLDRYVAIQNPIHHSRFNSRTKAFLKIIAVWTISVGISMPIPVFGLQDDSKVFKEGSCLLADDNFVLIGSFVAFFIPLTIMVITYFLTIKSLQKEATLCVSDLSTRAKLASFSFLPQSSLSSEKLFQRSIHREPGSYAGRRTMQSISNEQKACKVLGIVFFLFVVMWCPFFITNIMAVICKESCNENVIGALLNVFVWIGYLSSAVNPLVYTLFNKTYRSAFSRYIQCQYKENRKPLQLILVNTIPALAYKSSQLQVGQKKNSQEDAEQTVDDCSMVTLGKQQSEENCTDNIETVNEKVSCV

Compound	Immobility time (Mus musculus [1]) [s]	Ki [2] [nM]	Activity (Mus musculus [3]) [%]	Temperature change (Mus musculus [4]) [°C]	Temperature change (Mus musculus [5]) [°C]	Temperature change (Mus musculus [6]) [°C]	Activity (Mus musculus [7]) [%]	Temperature change (Mus musculus [8]) [°C]	Ki [9] [nM]
COc1ccccc1N1CCN(CCC(O)c2csc3ccccc23)CC1 (stereo not drawn)	143.5	35	1	-0.4	-2.5	-1.6	35	-1.16	250
COc1ccccc1N1CCN(CCC(=O)c2csc3ccccc23)CC1	<86.6	6	–	-1.13	<-1.47	-2.14	–	-1.27	–
COc1ccccc1N1CCN(CCC(Oc2cccc3ccccc23)c2ccsc2)CC1 (stereo not drawn)	<91.1	135	49	-1.16	–	-2.12	0	-1.22	> 5000
